In patent US20230085307A1, “PYRIDAZINONE COMPOUND AND HERBICIDE” (NISSAN CHEMICAL CORPORATION, priority 2019, published 2023):

Key:
persian speedwell = assay: Test Example 4: herbicidal effect by soil treatment (Table 19, symbol R); assay type: in vivo, Persian speedwell (Veronica persica); conditions: amount of applied herbicide 320 g/ha
In short: (§1)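 Soil-surface application: an emulsion agent diluted with water to the predetermined dose is sprayed uniformly over seeds lying under roughly 1.5 cm of sterilized diluvial soil. Boxes stay in a greenhouse at 25° C. to 30° C. Three weeks later, each species is graded on previously defined criteria.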

lambsquarters [1] = assay: Test Example 4: herbicidal effect by soil treatment (Table 19, symbol O); assay type: in vivo, lambsquarters (Chenopodium album); conditions: amount of applied herbicide 320 g/ha
In short: as §1

barnyard grass [2] = assay: Test Example 4: herbicidal effect by soil treatment (Table 19, symbol H); assay type: in vivo, barnyard grass (Echinochloa crus-galli); conditions: amount of applied herbicide 320 g/ha
In short: as §1

blackgrass = assay: Test Example 5: herbicidal effect by foliage application, plastic box (Table 20, symbol J); assay type: in vivo, blackgrass (Alopecurus myosuroides); conditions: foliage application, 320 g/ha, evaluated three weeks after application
In short: (§2)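 Sow seeds spot-wise in sterilized diluvial soil; cover with ~1.5 cm soil. Grow 14 days in greenhouse, 25° C. to 30° C. Spray foliage with emulsion diluted to predetermined amount. Rate effect after 3 weeks.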

lambsquarters [3] = assay: Test Example 5: herbicidal effect by foliage application, plastic box (Table 20, symbol O); assay type: in vivo, lambsquarters (Chenopodium album); conditions: foliage application, 320 g/ha, evaluated three weeks after application
In short: as §2

windgrass [4] = assay: Test Example 5: herbicidal effect by foliage application, plastic box (Table 20, symbol L); assay type: in vivo, windgrass (Apera spica-venti); conditions: foliage application, 320 g/ha, evaluated three weeks after application
In short: as §2

barnyard grass [5] = assay: Test Example 3: herbicidal effect by foliage application, Wagner pot (Table 18, symbol H); assay type: in vivo, barnyard grass (Echinochloa crus-galli); conditions: amount of applied herbicide 320 g/ha
In short: (§3)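 Plants were sown in alluvial soil held under 0.1–0.5 cm standing water and grown 14 days in a greenhouse at 25–30 °C. An emulsifiable formulation, water-diluted to the set dose, was then sprayed onto the foliage, and effects were scored three weeks later using previously defined criteria.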

redroot pigweed = assay: Test Example 5: herbicidal effect by foliage application, plastic box (Table 20, symbol N); assay type: in vivo, redroot pigweed (Amaranthus retroflexus); conditions: foliage application, 320 g/ha, evaluated three weeks after application
In short: as §2

Japanese bulrush [6] = assay: Test Example 2: herbicidal activity, application during weed generation under submerged conditions (Table 17, symbol B); assay type: in vivo, Japanese bulrush (Schoenoplectus juncoides); conditions: AAH 320 g/ha; application during weed generation, submerged conditions
In short: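 3-wk visual-criteria score after one water-surface dose. Emulsion formulation, water-diluted to set rate; applied at 1–2 leaf stage; alluvial soil, 4 cm standing water; seeds co-sown; greenhouse 25–30° C.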

southern crabgrass = assay: Test Example 4: herbicidal effect by soil treatment (Table 19, symbol F); assay type: in vivo, southern crabgrass (Digitaria ciliaris); conditions: amount of applied herbicide 320 g/ha
In short: as §1

Chinese sprangletop = assay: Test Example 3: herbicidal effect by foliage application, Wagner pot (Table 18, symbol D); assay type: in vivo, chinese sprangletop (Leptochloa chinensis); conditions: amount of applied herbicide 320 g/ha
In short: as §3

late watergrass = assay: Test Example 1: herbicidal activity, application before weed generation under submerged conditions (Table 16, symbol A); assay type: in vivo, late watergrass (Echinochloa oryzicola); conditions: 320 g/ha applied herbicide
In short: (§4)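 Emulsion formulation, water-diluted to set dose, was put onto the flooded surface (4 cm depth, alluvial soil) the same day weeds were sown and 2.5-leaf rice transplanted. After 3 weeks at 25-30 °C under glass, each species was rated 0 (≤5% kill) to 5 (≥90% kill).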

Japanese bulrush [7] = assay: Test Example 1: herbicidal activity, application before weed generation under submerged conditions (Table 16, symbol B); assay type: in vivo, Japanese bulrush (Schoenoplectus juncoides); conditions: 320 g/ha applied herbicide
In short: as §4

windgrass [8] = assay: Test Example 4: herbicidal effect by soil treatment (Table 19, symbol L); assay type: in vivo, windgrass (Apera spica-venti); conditions: amount of applied herbicide 320 g/ha
In short: as §1

chickweed = assay: Test Example 5: herbicidal effect by foliage application, plastic box (Table 20, symbol P); assay type: in vivo, common chickweed (Stellaria media); conditions: foliage application, 320 g/ha, evaluated three weeks after application
In short: as §2

barnyard grass [9] = assay: Test Example 5: herbicidal effect by foliage application, plastic box (Table 20, symbol H); assay type: in vivo, barnyard grass (Echinochloa crus-galli); conditions: foliage application, 320 g/ha, evaluated three weeks after application
In short: as §2

Compound | R: persian speedwell, herbicidal effect rating (persian speedwell) | O: lambsquarters, herbicidal effect rating (lambsquarters [1]) | H: barnyard grass, herbicidal effect rating (barnyard grass [2]) | herbicidal effect on J: blackgrass (criteria 0-5) (blackgrass) | herbicidal effect on O: lambsquarters (criteria 0-5) (lambsquarters [3]) | herbicidal effect on L: windgrass (criteria 0-5) (windgrass [4]) | herbicidal effect on H: barnyard grass (barnyard grass [5]) | herbicidal effect on N: redroot pigweed (criteria 0-5) (redroot pigweed) | herbicidal effect rating, B: Japanese bulrush (Japanese bulrush [6]) | F: southern crabgrass, herbicidal effect rating (southern crabgrass) | herbicidal effect on D: Chinese sprangletop (Chinese sprangletop) | Herbicidal effect on A: late watergrass (grade 0-5) (late watergrass) | Herbicidal effect on B: Japanese bulrush (grade 0-5) (Japanese bulrush [7]) | L: windgrass, herbicidal effect rating (windgrass [8]) | herbicidal effect on P: chickweed (criteria 0-5) (chickweed) | herbicidal effect on H: barnyard grass (criteria 0-5) (barnyard grass [9]) | further results
CCCC(=O)Oc1c(C)nn(C)c(=O)c1-c1c(-c2ccc(Br)cc2)sc2ccc(F)cc12 [2-206] | 5 (Herbicidal rate of 90% or more (almost completely withered)) | 4 (Herbicidal rate of 70% or more and less than 90%) | 2 (Herbicidal rate of 20% or more and less than 40%) | 4 (Herbicidal rate of 70% or more and less than 90%) | 5 (Herbicidal rate of 90% or more (almost completely withered)) | 4 (Herbicidal rate of 70% or more and less than 90%) | 5 (Herbicidal rate of 90% or more (almost completely withered)) | 5 (Herbicidal rate of 90% or more (almost completely withered)) | 3 (Herbicidal rate of 40% or more and less than 70%) | 1 (Herbicidal rate of 5% or more and less than 20%) | 4 (Herbicidal rate of 70% or more and less than 90%) | 5 (Herbicidal rate of 90% or more (almost completely withered)) | 5 (Herbicidal rate of 90% or more (almost completely withered)) | 2 (Herbicidal rate of 20% or more and less than 40%) | 5 (Herbicidal rate of 90% or more (almost completely withered)) | 5 (Herbicidal rate of 90% or more (almost completely withered)) | 
CCc1ccc(-c2sc3ccc(F)cc3c2-c2c(O)c(C)nn(C)c2=O)cc1 [2-207] | 5 (Herbicidal rate of 90% or more (almost completely withered)) | 5 (Herbicidal rate of 90% or more (almost completely withered)) | 2 (Herbicidal rate of 20% or more and less than 40%) | 4 (Herbicidal rate of 70% or more and less than 90%) | 5 (Herbicidal rate of 90% or more (almost completely withered)) | 4 (Herbicidal rate of 70% or more and less than 90%) | 4 (Herbicidal rate of 70% or more and less than 90%) | 5 (Herbicidal rate of 90% or more (almost completely withered)) | 3 (Herbicidal rate of 40% or more and less than 70%) | 3 (Herbicidal rate of 40% or more and less than 70%) | 5 (Herbicidal rate of 90% or more (almost completely withered)) | 2 (Herbicidal rate of 20% or more and less than 40%) | 4 (Herbicidal rate of 70% or more and less than 90%) | 3 (Herbicidal rate of 40% or more and less than 70%) | 5 (Herbicidal rate of 90% or more (almost completely withered)) | 4 (Herbicidal rate of 70% or more and less than 90%) | 
Cc1nn(C)c(=O)c(-c2c(-c3cccc(OCC(C)C)c3)sc3ccc(F)cc23)c1O [2-221] | 5 (Herbicidal rate of 90% or more (almost completely withered)) | 4 (Herbicidal rate of 70% or more and less than 90%) | 5 (Herbicidal rate of 90% or more (almost completely withered)) | 5 (Herbicidal rate of 90% or more (almost completely withered)) | 5 (Herbicidal rate of 90% or more (almost completely withered)) | 5 (Herbicidal rate of 90% or more (almost completely withered)) | 5 (Herbicidal rate of 90% or more (almost completely withered)) | 5 (Herbicidal rate of 90% or more (almost completely withered)) | 3 (Herbicidal rate of 40% or more and less than 70%) | 5 (Herbicidal rate of 90% or more (almost completely withered)) | 5 (Herbicidal rate of 90% or more (almost completely withered)) | 5 (Herbicidal rate of 90% or more (almost completely withered)) | 5 (Herbicidal rate of 90% or more (almost completely withered)) | 3 (Herbicidal rate of 40% or more and less than 70%) | 5 (Herbicidal rate of 90% or more (almost completely withered)) | 5 (Herbicidal rate of 90% or more (almost completely withered)) | 
Cc1nn(C)c(=O)c(-c2c(-c3cccc(OC(C)(C)C)c3)sc3ccc(F)cc23)c1O [2-223] |  |  |  | 0 (Herbicidal rate of 5% or less (almost no effect)) | 4 (Herbicidal rate of 70% or more and less than 90%) | 5 (Herbicidal rate of 90% or more (almost completely withered)) | 5 (Herbicidal rate of 90% or more (almost completely withered)) | 4 (Herbicidal rate of 70% or more and less than 90%) | 2 (Herbicidal rate of 20% or more and less than 40%) |  | 3 (Herbicidal rate of 40% or more and less than 70%) | 4 (Herbicidal rate of 70% or more and less than 90%) | 4 (Herbicidal rate of 70% or more and less than 90%) |  | 5 (Herbicidal rate of 90% or more (almost completely withered)) | 4 (Herbicidal rate of 70% or more and less than 90%) | herbicidal effect on R: persian speedwell (persian speedwell): 4 (Herbicidal rate of 70% or more and less than 90%); herbicidal effect on O: lambsquarters (lambsquarters [1]): 3 (Herbicidal rate of 40% or more and less than 70%); herbicidal effect on H: barnyard grass (barnyard grass [2]): 3 (Herbicidal rate of 40% or more and less than 70%); herbicidal effect on F: southern crabgrass (southern crabgrass): 4 (Herbicidal rate of 70% or more and less than 90%); herbicidal effect on L: windgrass (windgrass [8]): 0 (Herbicidal rate of 5% or less (almost no effect))
